Results as given in US11136601B2, “Conversion of S-lignin compounds to useful intermediates” (Alliance for Sustainable Energy, LLC, priority 2018, dated 2021).

Columns and labels:
[1] = biological target: T1, VanAB (vanillate demethylase; purified VanA and VanB subunits) (Pseudomonas putida, UniProt Q88GI6); assay: VanAB in vitro enzymatic assay (kinetics and specific activity, NADPH consumption at 340 nm); conditions: for VanAB specific activity: 100 μM substrate, pH 7.5; for VanAB specific activity / Kcat: 100 μM NADPH; for Kcat: Michaelis-Menten kinetics, 20 mM Tris-HCl pH 7.5
Description: VanAB activity was also tested towards vanillate analogous substrates such as vanillin, ferulic acid, sinapinic acid, methyl vanillate, ethyl vanillate, and guaiacol.
(§1) Activity assay were followed by cofactor NADPH consumption monitored spectrophotometrically at 340 nm.

[2] = tested on: P. putida CJ486 (second copy vanAB overexpressed in genome); assay: Toxicity assessment of S-lignin derived monomers, growth (OD600) of engineered strain CJ486; format: cell-based, Pseudomonas putida; conditions: strain CJ486, M9 minimal media with 20 mM glucose
Description: (§2) FIG. 9 illustrates: Panel A. Wild-type P. putida KT24401 and Panel B. P. putida CJ486 (second copy vanAB overexpressed in genome), both according to some embodiments of the present disclosure. […] Cultures were sampled periodically to evaluate growth by OD600 and metabolite concentrations in the media using HPLC. Each point represents the average of two measurements with error bars representing their range.
(§3) FIG. 10 illustrates: Panel A. Wild-type P. putida KT2440; and Panel B. P. putida CJ486 (second copy vanAB overexpressed in genome), both according to some embodiments of the present disclosure. Cells were grown in M9 minimal medium containing 20 mM glucose and various concentrations of SAL. Cultures were sampled periodically to evaluate growth by OD600 and metabolite concentrations in the media using HPLC. Each point represents the average of two measurements with error bars representing their range.
as §2, with “11” for “9”, “KT2440;” for “KT24401”
(§4) To evaluate this, the engineered strain CJ486 and wild-type strain were grown in M9 minimal media containing 20 mM glucose and various concentrations of the S-lignin monomers.
(§5) Strains were cultivated overnight in LB medium, washed once with 1×M9 medium (6.78 g/L disodium phosphate, 3 g/L monopotassium phosphate, 0.5 g/L NaCl, 1 g/L NH4Cl, 2 mM MgSO4, 100 μM CaCl2), and 18 μM FeSO4, pH 7.0) and used to inoculate 125 mL baffled flasks containing M9 minimal media supplemented with various concentrations of S-lignin monomers (SA, 3-MGA or syringaldehyde (SAL), stock solution dissolved in 2% DMSO) and 20 mM glucose in some cases, to an optical density of 0.1 and incubated shaking at 225 rpm, 30° C. Cultures were sampled periodically by removing 1 mL that was used to measure the OD600 using a spectrophotometer (DU640 Beckman Coulter). In the case of 3-MGA provided to wild-type strain KT2440, SN166 and SN175, the reaction was downscaled to 50 mL baffled flasks containing 10 mL minimal media and the experiment was performed in duplicate.

[3] = tested on: P. putida KT2440 wild-type; assay: Toxicity assessment of S-lignin derived monomers, growth (OD600) of wild-type strain; format: cell-based, Pseudomonas putida; conditions: wild-type KT2440, M9 minimal media with 20 mM glucose
Description: as §2, §3
as §2, with “11” for “9”, “KT2440;” for “KT24401”
as §4, §5

[4] = biological target: T1, VanAB (vanillate demethylase; purified VanA and VanB subunits); assay: VanAB in vitro time course of substrate consumption and product formation (HPLC); format: biochemical, P. putida KT2440; conditions: 30 minutes time course, 100 μM substrate, VanAB 1.3 μM, room temperature
Description: FIG. 13 illustrates time course of VA consumption/PCA production and SA consumption/3-MGA production, according to some embodiments of the present disclosure. VanAB (1.3 μM) was incubated with 100 μM VA or SA at room temperature, in the presence of 0.5 μM NADPH. Results are an average of at least two experiments.
FIG. 14 illustrates time-course of 3MGA consumption and GA formation, according to some embodiments of the present disclosure.
as §1
Metabolites analysis: Samples from the in vivo experiments were centrifuged to remove the cells and the supernatants were filtered through a 0.2 μm syringe filter and metabolite concentrations were analyzed on an Agilent 1100 series HPLC equipped with Phenominex Rezex™ RFQ-Fast Acid H^+ (8%), LC Column, a diode array detector, and refractive index detector and a 0.01 N H2SO4 mobile phase. The products were identified by comparing the retention times and spectral profiles with pure compounds. Shake flask experiments were performed in triplicate and the standard deviation of the triplicate measurement were calculated using the following equation: in which x is each value in a sample, x is the average of the values, and n is the number of values. The same method was employed to analyze the metabolites from the in vitro reaction. PDC compounds was analyzed and quantified by ^1H NMR spectrum. […], of fermentation broth was diluted in 400 μL of deuterium oxide (Isotope Laboratories Inc.) and 50 μL of deuterium oxide containing known mass of the internal standard succinic acid.

[5] = substrate: COc1cc(C(=O)O)cc(OC)c1O; assay: purified protein, by the assay type; conditions: other: Michaelis-Menten kinetics, 100 μM NADPH, 20 mM Tris-HCl pH 7.5, 30.0 °C
[6] = substrate: COc1cc(C(=O)O)ccc1O; assay: purified protein, by the assay type; conditions: other: apparent constant (substrate inhibition kinetics); NADPH measured in the presence of VA; pH 7.5; 30.0 °C
[7] = apparent constant (substrate inhibition kinetics), NADPH measured in the presence of VA

T1 sequence (Q88GI5 entry or part of it, one chain of several): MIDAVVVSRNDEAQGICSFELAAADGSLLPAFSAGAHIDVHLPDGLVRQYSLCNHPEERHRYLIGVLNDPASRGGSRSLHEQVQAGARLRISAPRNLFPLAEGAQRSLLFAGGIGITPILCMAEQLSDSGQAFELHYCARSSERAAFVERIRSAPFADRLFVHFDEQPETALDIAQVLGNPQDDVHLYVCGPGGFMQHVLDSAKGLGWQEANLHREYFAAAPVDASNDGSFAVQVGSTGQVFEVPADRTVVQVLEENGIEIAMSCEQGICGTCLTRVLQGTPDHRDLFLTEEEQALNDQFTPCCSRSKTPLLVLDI

Molecule: COc1cc(C(=O)O)cc(O)c1O [3-MGA, 3-O-methyl gallate]
- VanAB specific activity [1]: 264 ± 86 U/mg
- Kcat [1]: 0.435 ± 0.0467 s⁻¹
- Kcat ([1]; listed as 3MGA): 0.435 ± 0.0467 s⁻¹

Molecule: CCOC(=O)c1ccc(O)c(OC)c1 [Ethylvanillate, ethyl vanillate]
- VanAB specific activity [1]: 100 ± 27 U/mg
- VanAB specific activity ([1]; listed as ethyl vanillate): 100±27 U/mg

Molecule: O=C(O)c1cc(O)c(O)c(O)c1 [Gallate, gallic acid]
- concentration at which growth was completely inhibited (no growth) [2]: 50000 µM
- highest concentration tolerated / that allowed growth [2]: 20 mM
- concentration at which growth was completely inhibited (no growth) [3]: 50000 µM
- highest concentration tolerated / that allowed growth [3]: 20 mM

Molecule: COc1ccccc1O [Guieicol, guaiacol]
- VanAB specific activity [1]: 188 ± 16 U/mg
- VanAB specific activity ([1]; listed as guaiacol): 188±16 U/mg

Molecule: NC(=O)C1=CN([C@@H]2O[C@H](COP(=O)(O)OP(=O)(O)OC[C@H]3O[C@@H](n4cnc5c(N)ncnc54)[C@H](OP(=O)(O)O)[C@@H]3O)[C@@H](O)[C@H]2O)C=CC1 [NADPH, reference compound]
- KMapp [1, 7]: 26.7 ± 3.7 µM
- Kcat^app [1, 7]: 0.045 ± 0.0183 s⁻¹
- Ki ([1]; read-out: Ki (substrate inhibition), substrate inhibition kinetics, NADPH-dependent inhibition measured in the presence of VA): 25.3 ± 7.4 µM

Molecule: COc1cc(C=O)cc(OC)c1O [SAL, syringaldehyde]
- concentration at which growth was completely inhibited (no growth) [2]: 50000 µM
- highest concentration tolerated / that allowed growth [2]: 20 mM
- concentration at which growth was completely inhibited (no growth) [3]: 50000 µM
- highest concentration tolerated / that allowed growth [3]: 20 mM

Molecule: COc1cc(C(=O)O)cc(OC)c1O [Syringate, syringic acid]
- highest concentration tolerated / that allowed growth [2]: at least 120 mM
- VanAB specific activity [1]: 704 ± 103 U/mg
- Kcat ([1]; listed as SA): 1.13 ± 0.0683 s⁻¹
- product formed (protocatechuate from VA; 3-MGA from SA) [4]: 9 µM
- residual substrate concentration [4]: 70 µM
- highest concentration tolerated / that allowed growth [3]: at least 120 mM

Molecule: COc1cc(C(=O)O)ccc1O [Vanillate, vanillate]
- VanAB specific activity [1]: 403 ± 59 U/mg
- product formed (protocatechuate from VA; 3-MGA from SA) [4]: 47 µM
- substrate converted (metabolized) [4]: 58 µM

Molecule: COc1cc(C=O)ccc1O [Vanillin, vanillin]
- VanAB specific activity [1]: 49 ± 18 U/mg
- VanAB specific activity ([1]; listed as vanillin): 49±18 U/mg
- fold lower specific activity in comparison to VA ([1]; VanAB specific activity relative to VA): 10 fold

B1: VanAB (vanillate demethylase; purified VanA and VanB subunits) (Pseudomonas putida KT2440) (protein)
chain: MYPKNTWYVACTPDEIATKPLGRQICGEKIVFYRARENQVAAVEDFCPHRGAPLSLGYVEDGNLVCGYHGLVMGCDGKTVSMPGQRVRGFPCNKTFAAVERYGFIWVWPGDQAQADPALIPHLEWAVSDEWAYGGGLFHIGCDYRLMIDNLMDLTHETYVHASSIGQKEIDEAPPVTTVTGDEVVTARHMENIMAPPFWRMALRGNGLADDVPVDRWQICRFTPPSHVLIEVGVAHAGKGGYHAEAQHKASSIVVDFITPESDTSIWYFWGMARNFAAHDQTLTDNIREGQGKIFSEDLEMLERQQQNLLAHPERNLLKLNIDAGGVQSRKVLERIIAQERAPQPQLIATSANPA
- Km [5]: 113.9 ± 21.5 µM
- kcat [5]: 1.13 ± 0.0683 s⁻¹
- Km [6]: 4.3 ± 3.1 µM
- kcat [6]: 0.28 ± 0.0317 s⁻¹
